Like-named read-outs stand apart in the source and are kept apart here.
How the values were obtained:
Type in all cases: biochemical
human VEGFR2 = molecular target: T1, human VEGFR2 (Homo sapiens, UniProt P35968); assay: VEGFR2/KDR radioisotope kinase assay
T1 construct: kinase domain (amino acids 790 to end) fragment; 6xHis (N); made in house; host or cells: Sf21 insect cells (baculovirus)
Procedure: (a) An In Vitro Assay which-Determines the Ability of a Test Compound to Inhibit a Receptor Tyrosine Kinase.
The ability of compounds to inhibit receptor kinase (VEGFR2 and PDGFR-beta) activity was assayed using standard radioisotope assay for kinase. […] The proteins were purified using Ni2+/NTA agarose affinity column to purity
>85% as determined by coomassie blue-stained SDS-PAGE gel. For VEGFR2/KDR assay, p33 ATP tracers were incubated with purified recombinant VEGFR2 kinase to monitor the enzyme activity. In this assay, reactions were carried out in the presence of 0.1 mg/ml VEGFR2 kinase and 0.33 mg/ml myelin basic protein. The reaction was carried out at 30° C. for 120 minutes in a final assay condition contained 50 mM Tris-HCl, pH 7.5, 300 mM NaCl, 0.1 mM EGTA, 0.03% Brij 35, 270 mM sucrose, 1 mM benzamidine, 0.2 mM PMSF, 0.1% 2-mercaptoethanol and 100 μM ATP. An equal volume of 25% TCA was added to stop the reaction and precipitate the labeled proteins. Precipitated proteins were trapped onto glass fiber B filterplates and excess unlabeled p33 ATP was washed off. The plates were allowed to air-dry prior to the addition of 30 uL/well of Packard Microscint 20. The amount of incorporated isotope was measured using a Perkin Elmer TopCount plate reader. Different concentrations of compounds were added to reaction to assess the activity of compounds to inhibit VEGFR2 kinase. IC50 was calculated using Prism software with sigmoidal dose-response curve fitting.

human HER2 = molecular target: T2, human HER2 (Homo sapiens, UniProt P04626); assay: HER2 enzymatic activity assay
T2 construct: human HER2 amino acids 679-1255; host or cells: Sf9 insect cells (baculovirus)
T2 sequence (P04626 679-1255): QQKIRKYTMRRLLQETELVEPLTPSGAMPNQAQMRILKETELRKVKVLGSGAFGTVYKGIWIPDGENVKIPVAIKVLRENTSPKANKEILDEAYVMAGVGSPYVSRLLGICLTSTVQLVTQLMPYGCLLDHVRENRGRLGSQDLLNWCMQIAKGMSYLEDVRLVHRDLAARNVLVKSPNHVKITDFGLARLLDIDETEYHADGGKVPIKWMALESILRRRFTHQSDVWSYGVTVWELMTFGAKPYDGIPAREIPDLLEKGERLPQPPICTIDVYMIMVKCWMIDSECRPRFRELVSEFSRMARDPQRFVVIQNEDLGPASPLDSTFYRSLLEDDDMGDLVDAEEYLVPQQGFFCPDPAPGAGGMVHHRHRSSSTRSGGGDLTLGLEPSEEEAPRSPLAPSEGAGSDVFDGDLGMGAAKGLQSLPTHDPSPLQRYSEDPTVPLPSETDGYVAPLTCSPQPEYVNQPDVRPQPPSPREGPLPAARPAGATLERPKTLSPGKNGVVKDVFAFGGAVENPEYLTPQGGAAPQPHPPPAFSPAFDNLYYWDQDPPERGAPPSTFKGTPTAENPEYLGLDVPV
Procedure: (d) An In Vitro Assay which Determines the Ability of a Test Compound to Inhibit HER2 Enzymatic Activity.
10 nM HER2 and 0.1 mg/ml polyEY were placed in the reaction buffer and 2 mM MnCl2, 1 μM ATP and 1% DMSO final were added. The reaction mixture was incubated for 2 hours at room temperature.
Purity>90% by SDS PAGE and Coomassie blue staining. MW=91.6 kDa. Specific Activity of 40 U/mg, where one unit of activity is defined as 1 nmol phosphate incorporated into 30 ug/ml Poly (Glu:Tyr)4:1 substrate per minute at 30° C. with a final ATP concentration of 100 μM. Enzyme is in 25 mM Tris-HCl, pH 8.0, 100 mM NaCl, 0.05% Tween-20, 50% glycerol, 10 mM reduced glutathione, and 3 mM DTT.

human EGFR = molecular target: T3, human EGFR (Homo sapiens, UniProt P00533); assay: EGFR kinase assay (HTScan EGF Receptor Kinase Assay Kit, DELFIA); conditions: 200 μM ATP
T3 construct: human EGFR (His672-Ala1210); purchased Cell Signaling Technologies; host or cells: baculovirus expression system
T3 sequence (P00533 672-1210): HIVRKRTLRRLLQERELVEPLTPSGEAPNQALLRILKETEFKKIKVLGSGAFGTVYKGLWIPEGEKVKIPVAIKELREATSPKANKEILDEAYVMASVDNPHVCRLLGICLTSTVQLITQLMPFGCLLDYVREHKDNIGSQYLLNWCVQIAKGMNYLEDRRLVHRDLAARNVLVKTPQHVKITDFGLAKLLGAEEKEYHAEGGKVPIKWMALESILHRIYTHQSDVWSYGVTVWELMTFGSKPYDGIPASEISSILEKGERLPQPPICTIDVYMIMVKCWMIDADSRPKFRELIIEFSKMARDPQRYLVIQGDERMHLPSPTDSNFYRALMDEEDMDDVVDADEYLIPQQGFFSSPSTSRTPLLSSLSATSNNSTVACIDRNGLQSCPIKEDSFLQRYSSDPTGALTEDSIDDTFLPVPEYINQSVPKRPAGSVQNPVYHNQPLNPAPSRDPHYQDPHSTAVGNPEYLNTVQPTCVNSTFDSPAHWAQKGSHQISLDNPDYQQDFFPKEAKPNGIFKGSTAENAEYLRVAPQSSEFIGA
Procedure: (e) An In Vitro Assay which Determines the Ability of a Test Compound to Inhibit EGFR Kinase.
The ability of compounds to inhibit receptor kinase (EGFR) activity was assayed using HTScan™ EGF Receptor Kinase Assay Kits (Cell Signaling Technologies, Danvers, Mass.). EGFR tyrosine kinase was obtained as GST-kinase fusion protein which was produced using a baculovirus expression system with a construct expressing human EGFR (His672-Ala1210) (GenBank Accession No. NM_005228) with an amino-terminal GST tag. The protein was purified by one-step affinity chromatography using glutathione-agarose. An anti-phosphotyrosine monoclonal antibody, P-Tyr-100, was used to detect phosphorylation of biotinylated substrate peptides (EGFR), Biotin-PTP1B (Tyr66). Enzymatic activity was tested in 60 mM HEPES, 5 mM MgCl2 5 mM MnCl2 200 μM ATP, 1.25 mM DTT, 3 μM Na3VO4, 1.5 mM peptide, and 50 ng EGF Receptor Kinase. Bound antibody was detected using the DELFIA system (PerkinElmer, Wellesley, Mass.) consisting of DELFIA® Europium-labeled Anti-mouse IgG (PerkinElmer, #AD0124), DELFIA® Enhancement Solution (PerkinElmer, #1244-105), and a DELFIA® Streptavidin coated, 96-well Plate (PerkinElmer, AAAND-0005). Fluorescence was measured on a WALLAC Victor 2 plate reader and reported as relative fluorescence units (RFU). Data were plotted using GraphPad Prism (v4.0a) and IC50's calculated using a sigmoidal dose response curve fitting algorithm.
Test compounds were dissolved in dimethylsulfoxide (DMSO) to give a 20 mM working stock concentration. Each assay was setup as follows: Added 100 μl of 10 mM ATP to 1.25 ml 6 mM substrate peptide. Diluted the mixture with dH2O to 2.5 ml to make 2×ATP/substrate cocktail ([ATP]=[…], [substrate]=3 mM). Immediately transfer enzyme from −80° C. to ice. Allowed enzyme to thaw on ice. Microcentrifuged briefly at 4° C. to bring liquid to the bottom of the vial. Returned immediately to ice. Added 10 μl of DTT (1.25 mM) to 2.5 ml of 4× HTScan™ Tyrosine Kinase Buffer (240 mM HEPES pH 7.5, 20 mM MgCl2, 20 mM MnCl, 12 mM NaVO3) to make DTT/Kinase buffer. Transfer 1.25 ml of DTT/Kinase buffer to enzyme tube to make 4× reaction cocktail ([enzyme]=4 ng/μL in 4× reaction cocktail). Incubated 12.5 μl of the 4× reaction cocktail with 12.5 μl/well of prediluted compound of interest (usually around 10 μM) for 5 minutes at room temperature. Added 25 μl of 2×ATP/substrate cocktail to 25 μl/well preincubated reaction cocktail/compound. Incubated reaction plate at room temperature for 30 minutes. Added 50 μl/well Stop Buffer (50 mM EDTA, pH 8) to stop the reaction. Transferred 25 μl of each reaction and 75 μl dH2O/well to a 96-well streptavidin-coated plate and incubated at room temperature for 60 minutes. Washed three times with 200 μl/well PBS/T (PBS, 0.05% Tween-20). Diluted primary antibody, Phospho-Tyrosine mAb (P-Tyr-100), 1:1000 in PBS/T with 1% bovine serum albumin (BSA). Added 100 μl/well primary antibody. Incubated at room temperature for 60 minutes. Washed three times with 200 μl/well PBS/T. Diluted Europium labeled anti-mouse IgG 1:500 in PBS/T with 1% BSA. Added 100 μl/well diluted antibody. Incubated at room temperature for 30 minutes. Washed five times with 200 μl/well PBS/T. Added 100 μl/well DELFIA® Enhancement Solution. Incubated at room temperature for 5 minutes. Detected 615 nm fluorescence emission with appropriate Time-Resolved Plate Reader.

[1] = 100 μM ATP, read-out: VEGFR2 IC50
[2] = 1 μM ATP, read-out: HER2/ErbB IC50

T1 sequence (P35968 790-1356 limits assumed): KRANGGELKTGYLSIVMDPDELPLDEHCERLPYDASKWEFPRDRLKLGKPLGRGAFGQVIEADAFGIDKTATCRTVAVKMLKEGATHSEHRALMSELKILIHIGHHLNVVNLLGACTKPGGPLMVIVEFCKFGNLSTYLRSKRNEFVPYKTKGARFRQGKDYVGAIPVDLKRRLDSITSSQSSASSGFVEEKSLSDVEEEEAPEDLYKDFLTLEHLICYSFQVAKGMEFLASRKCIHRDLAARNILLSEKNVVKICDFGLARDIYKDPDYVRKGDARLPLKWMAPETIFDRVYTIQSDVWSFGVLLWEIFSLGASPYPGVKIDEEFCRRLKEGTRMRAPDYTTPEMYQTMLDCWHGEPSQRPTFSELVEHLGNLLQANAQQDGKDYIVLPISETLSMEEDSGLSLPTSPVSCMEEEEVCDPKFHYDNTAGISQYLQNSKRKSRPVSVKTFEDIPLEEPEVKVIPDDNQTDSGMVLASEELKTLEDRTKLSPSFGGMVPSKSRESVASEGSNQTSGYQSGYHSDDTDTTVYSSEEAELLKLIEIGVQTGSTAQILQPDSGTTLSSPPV

SMILES | IC50 (human VEGFR2; [1]) [nM] | IC50 (human HER2; [2]) [nM] | IC50 (human EGFR) [nM] | IC50 (human VEGFR2) [nM] | IC50 (human HER2) [nM]
COc1cc2c(Oc3ccc4[nH]c(C)cc4c3F)ncnc2cc1OCCCCCCC(=O)NO [Compound 11, 7-(4-(4-fluoro-2-methyl-1H-indol-5-yloxy)-6-methoxyquinazolin-7-yloxy)-N-hydroxyheptanamide] | – | – | 1000 to 10000 | < 100 | 1000 to 10000
Cc1cc2c(F)c(Oc3ncnc4cc(OCCCN5CCCC5)c(OCCCCCC(=O)NO)cc34)ccc2[nH]1 [Compound 16, 6-(4-(4-fluoro-2-methyl-1H-indol-5-yloxy)-7-(3-(pyrrolidin-1-yl)propoxy)quinazolin-6-yloxy)-N-hydroxyhexanamide] | < 100 | < 100 | 1000 to 10000 | – | –
Cc1cc2c(F)c(Oc3ncnc4cc(OCCCN5CCCC5)c(OCCCCCCC(=O)NO)cc34)ccc2[nH]1 [Compound 17] | < 100 | 100 to 1000 | 1000 to 10000 | – | –
Cc1cc2c(F)c(Nc3ncnc4cc(OCCCN5CCCC5)c(OCCCCC(=O)NO)cc34)ccc2[nH]1 [Compound 18, 5-(4-(4-fluoro-2-methyl-1H-indol-5-ylamino)-7-(3-(pyrrolidin-1-yl)propoxy)quinazolin-6-yloxy)-N-hydroxypentanamide] | < 100 | < 100 | 100 to 1000 | – | –
Cc1cc2c(F)c(Nc3ncnc4cc(OCCCN5CCCC5)c(OCCCCCCC(=O)NO)cc34)ccc2[nH]1 [Compound 20, 7-(4-(4-Fluoro-2-methyl-1H-indol-5-ylamino)-7-(3-(pyrrolidin-1-yl)propoxy)quinazolin-6-yloxy)-N-hydroxyheptanamide] | < 100 | < 100 | 1000 to 10000 | – | –

Other lines, results leading:

IC50 (human VEGFR2; [1]) [nM] | IC50 (human HER2; [2]) [nM] | IC50 (human EGFR) [nM] | IC50 (human VEGFR2) [nM] | IC50 (human HER2) [nM] | SMILES
1000 to 10000 | < 100 | < 100 | – | – | COc1cc2ncnc(Nc3ccc4occc4c3)c2cc1OCCCCCCC(=O)NO [Compound 2, 7-(4-(benzofuran-5-ylamino)-7-methoxyquinazolin-6-yloxy)-N-hydroxyheptanamide]
< 100 | 100 to 1000 | 100 to 1000 | – | – | COc1cc2c(Oc3ccc4[nH]c(C)cc4c3F)ncnc2cc1OCCCCCC(=O)NO [Compound 10, 6-(4-(4-fluoro-2-methyl-1H-indol-5-yloxy)-6-methoxyquinazolin-7-yloxy)-N-hydroxyhexanamide]
< 100 | < 100 | 100 to 1000 | – | – | COc1cc2c(Nc3ccc4[nH]c(C)cc4c3F)ncnc2cc1OCCCCCC(=O)NO [Compound 13, 6-(4-(4-fluoro-2-methyl-1H-indol-5-ylamino)-6-methoxyquinazolin-7-yloxy)-N-hydroxyhexanamide]
< 100 | 100 to 1000 | < 100 | – | – | COc1cc2c(Nc3ccc4[nH]c(C)cc4c3F)ncnc2cc1OCCCCCCC(=O)NO [Compound 14, 7-(4-(4-fluoro-2-methyl-1H-indol-5-ylamino)-6-methoxy-quinazolin-7-yloxy)-N-hydroxyheptanamide]
< 100 | < 100 | < 100 | – | – | Cc1cc2c(F)c(Nc3ncnc4cc(OCCCN5CCCC5)c(OCCCCCC(=O)NO)cc34)ccc2[nH]1 [Compound 19, 6-(4-(4-Fluoro-2-methyl-1H-indol-5-ylamino)-7-(3-(pyrrolidin-1-yl)propoxy)quinazolin-6-yloxy)-N-hydroxyhexanamide]
